Legend:
[1] = target: T1, HuR protein interaction with the ARE site of Msi1 mRNA (HuR-Msi1^ARE) (Homo sapiens, UniProt Q15717); experiment: Fluorescence polarization (FP) assay, inhibition of HuR-Msi1 ARE interaction; type: binding; details: full-length human HuR, read-out: Ki via FP assay
T1 construct: full-length human HuR protein was produced by the KU COBRE-PSF Protein Purification Group; made in house
From the text: A fluorescence polarization (FP)-based binding assay was utilized to assess the inhibition of HuR protein interaction with the ARE site of Msi1 mRNA (“HuR-Msi1^ARE”) by compounds of interest. Briefly, full-length human HuR protein was produced by the KU COBRE-PSF Protein Purification Group and Bcl2, Msi1 and XIAP mRNA sequences (16 nt) were designed based on literature precedent^23,24,31,32. Fluorescein labeled RNAs were purchased from Dharmacon with the following sequences: Msi1 RNA: 5′-GCUUUUAUUUAUUUUG-3′-fluorescein; Bcl-2 RNA: 5′-AAAAGAUUUAUUUAUU-3′-fluorescein; XIAP RNA: 5′-UAGUUAUUUUUA UGUC-3′-fluorescein, and a 16-nt degenerative RNA with 3′-fluorescein label was used as a negative control.

[2] = system: PANC-1-Luc orthotopic pancreatic xenografts; experiment: Orthotopic pancreatic tumor model (PANC-1-Luc); type: in vivo, nude mice
Description: All animal procedures were approved by the Institutional Animal Care and Use Committee at the University of Kansas Medical Center under the protocol #2015-2247. Dose of KH-3 was pre-determined by a pilot experiment to be 100 mg/kg body weight, intraperitoneal injection (IP), three times weekly. All treatment in this pancreatic cancer section of the present disclosure concerning KH-3 used this dose regimen.
An orthotopic pancreatic tumor model was used to determine treatment effects of KH-3. Luciferase-expressing PANC-1 cells (PANC-1-Luc, multi-clones) were established by the Preclinical Proof of Concept Core Laboratory (University of Kansas Medical Center, Kansas City, Kans.). A small subcostal laparotomy was performed in female Ncr nu/nu mice to expose the pancreas, and 2×10^5 PANC-1-Luc cells in 50 μL PBS were injected into the tail of pancreas. […]
The in vivo tumor inhibitory effects of KH-3 were tested in a highly metastatic orthotopic model of pancreatic cancer. […] Tumor progression is monitored by weekly imaging using an IVIS Spectrum imaging system (Caliper Life Sciences). […] After 2 weeks, tumor development in the pancreas of the recipient mice was detected by imaging. […] The dose regimen of KH-3 was determined by a pilot dose-finding experiment to be 100 mg/kg, intraperitoneal injection (IP), three times (3×) weekly, which was the highest dose without showing toxicity. […]

T1 sequence (Q15717 whole entry): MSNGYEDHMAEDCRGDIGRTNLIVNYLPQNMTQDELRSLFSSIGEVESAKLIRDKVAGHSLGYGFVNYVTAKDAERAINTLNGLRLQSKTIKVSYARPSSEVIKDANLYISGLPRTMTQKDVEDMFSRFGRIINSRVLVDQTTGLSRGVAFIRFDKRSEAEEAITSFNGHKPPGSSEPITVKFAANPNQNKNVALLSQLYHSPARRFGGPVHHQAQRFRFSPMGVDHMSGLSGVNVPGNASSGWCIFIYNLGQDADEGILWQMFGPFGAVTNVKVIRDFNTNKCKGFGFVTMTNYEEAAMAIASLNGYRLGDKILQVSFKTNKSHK

CC(C)(C)c1ccc(S(=O)(=O)Nc2ccc3sc(/C=C/C(=O)NO)cc3c2)cc1 [KH-3]
Ki [1]: 810 nM | mice that developed metastasis (liver) ([2]; 100 mg/kg IP 3× weekly, 5 weeks, 1/10): 10% | highest dose without showing toxicity ([2]; pilot dose-finding experiment, IP, three times weekly): 100 mg/kg
